The values below are quoted from earlier work in patent US8133194B2 (Henry Ford Health System, priority 2006, dated 2012).

Molecules are shown by their SMILES.

For data set [1] the following is noted: under normal conditions, equal to the renal plasma flow.
For data set [2] the following is noted: ICU patients.
The conditions of data set [3]: as stated for pre-filter fluid pH.

Regarding `Nc1ccc(C(=O)NCC(=O)O)cc1` [PAH, para-amino-hippuric acid], the PAH clearance entry in data set [1] is on record as “up to 0.6 L/minute”. Take `O=C(O)CC(O)(CC(=O)O)C(=O)O` [Citrate]: in data set [2], the “K(b) liver clearance of citrate” value was 0.2 to 0.5 L/min. Besides, the pKa3 in data set [3] is 6.3.
